Experimental data as given in ChEMBL document CHEMBL1201862, “PubChem BioAssay data set” (2004).
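Growth conditions: 96-well plates. Treatment: test compound, 48 hours, 5 concentrations. Analysis: linear interpolation between bracketing concentrations; unreached endpoints set to highest concentration. At the GI50, growth is halved.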 Activity calls are given as the source filed them. No stated cut-off is given here; in the data, active = GI50 up to about 1.1 µM and inactive = higher.

Tests used:
Assay in all cases: DTP human tumour cell line panel, 48 h
SN12C = tested on: SN12C
HOP-18 = tested on: HOP-18
OVCAR-3 = tested on: OVCAR-3
SNB-78 = tested on: SNB-78
HOP-92 = tested on: HOP-92
SK-OV-3 = tested on: SK-OV-3
NCI-H460 = tested on: NCI-H460
NCI-H226 = tested on: NCI-H226
COLO 205 = tested on: COLO 205
OVCAR-5 = tested on: OVCAR-5
IGROV-1 = tested on: IGROV-1
DMS-114 = tested on: DMS-114
M19-MEL = tested on: M19-MEL
OVCAR-8 = tested on: OVCAR-8
A498 = tested on: A498
U-251 = tested on: U-251
UACC-257 = tested on: UACC-257
KM-20L2 = tested on: KM-20L2
M14 = tested on: M14
RXF 393 = tested on: RXF 393
SF-268 = tested on: SF-268
RPMI-8226 = tested on: RPMI-8226
KM12 = tested on: KM12
SK-MEL-28 = tested on: SK-MEL-28
LOX IMVI = tested on: LOX IMVI
CCRF-CEM = tested on: CCRF-CEM
DMS-273 = tested on: DMS-273
CAKI-1 = tested on: CAKI-1
UO-31 = tested on: UO-31
SF-539 = tested on: SF-539
NCI-H23 = tested on: NCI-H23
HCT-15 = tested on: HCT-15
TK-10 = tested on: TK-10
HCT-116 = tested on: HCT-116
K562 = tested on: K562
MOLT-4 = tested on: MOLT-4
SK-MEL-2 = tested on: SK-MEL-2
A549 = tested on: A549
HOP-62 = tested on: HOP-62
LXFL 529 = tested on: LXFL 529
SW-620 = tested on: SW-620
OVCAR-4 = tested on: OVCAR-4
SNB-75 = tested on: SNB-75
ACHN = tested on: ACHN
786-0 = tested on: 786-0
Malme-3M = tested on: Malme-3M
SF-295 = tested on: SF-295
HL-60 = tested on: HL-60
UACC-62 = tested on: UACC-62
NCI-H522 = tested on: NCI-H522
SK-MEL-5 = tested on: SK-MEL-5
SR = tested on: SR
HT-29 = tested on: HT-29
DLD-1 = tested on: DLD-1
EKVX = tested on: EKVX
SNB-19 = tested on: SNB-19
HCC 2998 = tested on: HCC 2998

`O=C(OCc1ccccc1C1CSCSC1)c1cc(C(=O)OCc2ccccc2C2CSCSC2)c(C(=O)OCc2ccccc2C2CSCSC2)cc1C(=O)OCc1ccccc1C1CSCSC1` was tested, and the GI50 (SN12C) was > 100 µM (inactive), the GI50 (HOP-18) was > 100 µM (inactive) and the GI50 (OVCAR-3) was > 100 µM (inactive). For the same compound, the GI50 (SNB-78) was 78.9 µM (inactive), the GI50 (HOP-92) was > 100 µM (inactive) and the GI50 (SK-OV-3) was > 100 µM (inactive). The GI50 (NCI-H460) was > 100 µM (inactive), the GI50 (NCI-H226) was > 100 µM (inactive) and the GI50 (COLO 205) was > 100 µM (inactive). For the same compound, the GI50 (OVCAR-5) was > 100 µM (inactive), the GI50 (IGROV-1) was > 100 µM (inactive) and the GI50 (DMS-114) was > 100 µM (inactive). For the same compound, the GI50 (M19-MEL) was > 100 µM (inactive), the GI50 (OVCAR-8) was > 100 µM (inactive) and the GI50 (A498) was > 100 µM (inactive). For the same compound, the GI50 (U-251) was > 100 µM (inactive), the GI50 (UACC-257) was > 100 µM (inactive) and the GI50 (KM-20L2) was > 100 µM (inactive). For the same compound, the GI50 (M14) was > 100 µM (inactive), the GI50 (RXF 393) was > 100 µM (inactive) and the GI50 (SF-268) was > 100 µM (inactive). For the same compound, the GI50 (RPMI-8226) was > 100 µM (inactive), the GI50 (KM12) was > 100 µM (inactive) and the GI50 (SK-MEL-28) was > 100 µM (inactive). For the same compound, the GI50 (LOX IMVI) was > 100 µM (inactive), the GI50 (CCRF-CEM) was > 100 µM (inactive) and the GI50 (DMS-273) was > 100 µM (inactive). For the same compound, the GI50 (CAKI-1) was > 100 µM (inactive), the GI50 (UO-31) was > 100 µM (inactive) and the GI50 (SF-539) was > 100 µM (inactive). For the same compound, the GI50 (NCI-H23) was > 100 µM (inactive), the GI50 (HCT-15) was greater than 100 µM and the GI50 (TK-10) was > 100 µM (inactive). For the same compound, the GI50 (HCT-116) was > 100 µM (inactive), the GI50 (K562) was > 100 µM (inactive) and the GI50 (MOLT-4) was > 100 µM (inactive). For the same compound, the GI50 (SK-MEL-2) was > 100 µM (inactive), the GI50 (A549) was > 100 µM (inactive) and the GI50 (HOP-62) was > 100 µM (inactive). For the same compound, the GI50 (LXFL 529) was > 100 µM (inactive), the GI50 (SW-620) was > 100 µM (inactive) and the GI50 (OVCAR-4) was > 100 µM (inactive). For the same compound, the GI50 (SNB-75) was 29.4 µM (inactive), the GI50 (ACHN) was > 100 µM (inactive) and the GI50 (786-0) was 65 µM (inactive). For the same compound, the GI50 (Malme-3M) was > 100 µM (inactive), the GI50 (SF-295) was > 100 µM (inactive) and the GI50 (HL-60) was > 100 µM (inactive). For the same compound, the GI50 (UACC-62) was > 100 µM (inactive), the GI50 (NCI-H522) was > 100 µM (inactive) and the GI50 (SK-MEL-5) was > 100 µM (inactive). For the same compound, the GI50 (SR) was > 100 µM (inactive), the GI50 (HT-29) was > 100 µM (inactive) and the GI50 (DLD-1) was > 100 µM (inactive).
For `O=C(Nc1cccc(C(F)(F)F)c1)C(=O)C1NC(=S)NC1=O` (stereo unspecified), the GI50 (SN12C) was > 100 µM (inactive), the GI50 (HOP-18) was > 100 µM (inactive) and the GI50 (OVCAR-3) was > 100 µM (inactive). The GI50 (SNB-78) was > 100 µM (inactive), the GI50 (HOP-92) was > 100 µM (inactive) and the GI50 (EKVX) was > 100 µM (inactive). For the same compound, the GI50 (SK-OV-3) was > 100 µM (inactive), the GI50 (NCI-H460) was > 100 µM (inactive) and the GI50 (NCI-H226) was > 100 µM (inactive). For the same compound, the GI50 (COLO 205) was 39 µM (inactive), the GI50 (OVCAR-5) was > 100 µM (inactive) and the GI50 (IGROV-1) was > 100 µM (inactive). The GI50 (DMS-114) was > 100 µM (inactive), the GI50 (M19-MEL) was > 100 µM (inactive) and the GI50 (OVCAR-8) was > 100 µM (inactive). For the same compound, the GI50 (A498) was > 100 µM (inactive), the GI50 (UACC-257) was 31.6 µM (inactive) and the GI50 (KM-20L2) was > 100 µM (inactive). For the same compound, the GI50 (M14) was > 100 µM (inactive), the GI50 (RXF 393) was > 100 µM (inactive) and the GI50 (SF-268) was > 100 µM (inactive). For the same compound, the GI50 (RPMI-8226) was > 100 µM (inactive), the GI50 (KM12) was > 100 µM (inactive) and the GI50 (SK-MEL-28) was > 100 µM (inactive). The GI50 (LOX IMVI) was 72.9 µM (inactive), the GI50 (CCRF-CEM) was 54.5 µM (inactive) and the GI50 (DMS-273) was > 100 µM (inactive). The GI50 (CAKI-1) was > 100 µM (inactive), the GI50 (UO-31) was > 100 µM (inactive) and the GI50 (SNB-19) was > 100 µM (inactive). The GI50 (SF-539) was > 100 µM (inactive), the GI50 (HCC 2998) was > 100 µM (inactive) and the GI50 (NCI-H23) was > 100 µM (inactive). For the same compound, the GI50 (HCT-15) was 35.3 µM, the GI50 (TK-10) was > 100 µM (inactive) and the GI50 (HCT-116) was 82.4 µM (inactive). The GI50 (K562) was 71.1 µM (inactive), the GI50 (MOLT-4) was > 100 µM (inactive) and the GI50 (SK-MEL-2) was > 100 µM (inactive). The GI50 (A549) was > 100 µM (inactive), the GI50 (HOP-62) was > 100 µM (inactive) and the GI50 (LXFL 529) was > 100 µM (inactive). The GI50 (SW-620) was 17.7 µM (inactive), the GI50 (OVCAR-4) was > 100 µM (inactive) and the GI50 (SNB-75) was > 100 µM (inactive). The GI50 (ACHN) was > 100 µM (inactive), the GI50 (786-0) was > 100 µM (inactive) and the GI50 (Malme-3M) was > 100 µM (inactive). For the same compound, the GI50 (SF-295) was > 100 µM (inactive), the GI50 (HL-60) was > 100 µM (inactive) and the GI50 (UACC-62) was > 100 µM (inactive). For the same compound, the GI50 (SK-MEL-5) was > 100 µM (inactive), the GI50 (SR) was > 100 µM (inactive) and the GI50 (HT-29) was 61.9 µM (inactive). The GI50 (DLD-1) was > 100 µM (inactive).
In the case of `CCN1C[C@]2(C)CC[C@H](O)C34C1C(C[C@@H]32)[C@@]1(O)CC[C@H]2C[C@@H]4[C@@H]1[C@H]2O`, the GI50 (SN12C) is reported as > 100 µM (inactive), the GI50 (HOP-18) is reported as > 100 µM (inactive) and the GI50 (OVCAR-3) is reported as > 100 µM (inactive). For the same compound, the GI50 (SNB-78) was 88.7 µM (inactive), the GI50 (HOP-92) was > 100 µM (inactive) and the GI50 (SK-OV-3) was > 100 µM (inactive). The GI50 (NCI-H460) was > 100 µM (inactive), the GI50 (COLO 205) was > 100 µM (inactive) and the GI50 (OVCAR-5) was > 100 µM (inactive). The GI50 (IGROV-1) was > 100 µM (inactive), the GI50 (DMS-114) was > 100 µM (inactive) and the GI50 (M19-MEL) was > 100 µM (inactive). For the same compound, the GI50 (OVCAR-8) was > 100 µM (inactive), the GI50 (U-251) was > 100 µM (inactive) and the GI50 (UACC-257) was > 100 µM (inactive). The GI50 (KM-20L2) was > 100 µM (inactive), the GI50 (M14) was > 100 µM (inactive) and the GI50 (RXF 393) was > 100 µM (inactive). The GI50 (SF-268) was > 100 µM (inactive), the GI50 (RPMI-8226) was > 100 µM (inactive) and the GI50 (KM12) was > 100 µM (inactive). For the same compound, the GI50 (SK-MEL-28) was > 100 µM (inactive), the GI50 (LOX IMVI) was > 100 µM (inactive) and the GI50 (CCRF-CEM) was > 100 µM (inactive). The GI50 (DMS-273) was > 100 µM (inactive), the GI50 (CAKI-1) was > 100 µM (inactive) and the GI50 (UO-31) was > 100 µM (inactive). For the same compound, the GI50 (SNB-19) was > 100 µM (inactive), the GI50 (SF-539) was > 100 µM (inactive) and the GI50 (NCI-H23) was > 100 µM (inactive). The GI50 (HCT-15) was greater than 100 µM, the GI50 (TK-10) was > 100 µM (inactive) and the GI50 (HCT-116) was > 100 µM (inactive). The GI50 (MOLT-4) was > 100 µM (inactive), the GI50 (SK-MEL-2) was > 100 µM (inactive) and the GI50 (A549) was > 100 µM (inactive). For the same compound, the GI50 (HOP-62) was > 100 µM (inactive), the GI50 (LXFL 529) was > 100 µM (inactive) and the GI50 (SW-620) was > 100 µM (inactive). For the same compound, the GI50 (OVCAR-4) was > 100 µM (inactive), the GI50 (SNB-75) was > 100 µM (inactive) and the GI50 (ACHN) was > 100 µM (inactive). For the same compound, the GI50 (786-0) was > 100 µM (inactive), the GI50 (Malme-3M) was > 100 µM (inactive) and the GI50 (SF-295) was > 100 µM (inactive). The GI50 (HL-60) was > 100 µM (inactive), the GI50 (UACC-62) was > 100 µM (inactive) and the GI50 (NCI-H522) was > 100 µM (inactive). The GI50 (SK-MEL-5) was > 100 µM (inactive), the GI50 (SR) was > 100 µM (inactive) and the GI50 (HT-29) was > 100 µM (inactive). The GI50 (DLD-1) was > 100 µM (inactive).
